Consider eleven compounds from ChEMBL document CHEMBL1134900, “Substituted 3-amino biaryl propionic acids as potent VLA-4 antagonists” (Bioorg Med Chem Lett, 2002).

The nature of series [1]: Compound was tested for its plasma half life in Sprague Dawley rats. The following applies: rat.
Series [2] can be described thus: Compound was tested for its plasma volume distribution in Sprague Dawley rats. The following applies: rat.
A short description of series [3]: Compound was tested for its plasma clearance rate in Sprague Dawley rats. The following applies: rat.
A further series is described as follows: in vivo. To be noted: rhesus monkey, plasma, iv, 0.75 mg/kg.

Description for in vivo: Compound was tested for its plasma clearance rate in rhesus monkey at a dose of 0.75 mg/kg iv/ 1.5 mg/kg po

`COc1cccc(F)c1-c1ccc([C@@H](CC(=O)O)NC(=O)[C@]2(C)CCCN2S(=O)(=O)c2cc(Cl)cc(Cl)c2)cc1` showed a half-life in series [1] of 1.3 h. In series [2], the Vd stood at 0.13 L/kg. In series [3], the clearance is 2.3 mL/min/kg.
Turning to `COc1cc(F)ccc1-c1ccc([C@@H](CC(=O)O)NC(=O)[C@@H]2CCCN2S(=O)(=O)c2cc(Cl)cc(Cl)c2)cc1`, the clearance in series [3] was determined as 14.6 mL/min/kg.
In series [1], `COc1cccc(OC(F)(F)F)c1-c1ccc([C@@H](CC(=O)O)NC(=O)[C@]2(C)CCCN2S(=O)(=O)c2cc(Cl)cc(Cl)c2)cc1` had a half-life of 1.6 h. Besides, the Vd in series [2] amounted to 1.1 L/kg. Moreover, the clearance in series [3] was 24.9 mL/min/kg.
In series [1], `COc1ccc(F)cc1-c1ccc([C@@H](CC(=O)O)NC(=O)[C@]2(C)CCCN2S(=O)(=O)c2cc(Cl)cc(Cl)c2)cc1` gave a half-life of 1.2 h. The compound also showed a Vd in series [2] of 0.08 L/kg. In series [3], this compound had a clearance of 2.3 mL/min/kg.
For `COc1cc(F)cc(-c2ccc([C@@H](CC(=O)O)NC(=O)[C@]3(C)CCCN3S(=O)(=O)c3cc(Cl)cc(Cl)c3)cc2)c1`, in series [1], the half-life was 0.9 h. The compound further yielded a Vd in series [2] of 0.12 L/kg. Besides, in series [3], the clearance was found to be 2.5 mL/min/kg.
Taken in the same sequence, the figures for `COc1cccc(OC)c1-c1ccc([C@@H](CC(=O)O)NC(=O)[C@@H]2CCCN2S(=O)(=O)c2cc(Cl)cc(Cl)c2)cc1` were 1.8 h, 1.4 L/kg and 51.6 mL/min/kg.
Compound `COc1ccc(F)cc1-c1ccc([C@@H](CC(=O)O)NC(=O)[C@@H]2CCCN2S(=O)(=O)c2cc(Cl)cc(Cl)c2)cc1` showed a half-life in series [1] of 3 h. This compound also returned a Vd in series [2] of 0.58 L/kg. Moreover, the clearance in series [3] was found to be 13.1 mL/min/kg.
For the compound `COc1ccccc1-c1ccc([C@@H](CC(=O)O)NC(=O)[C@@H]2CCN2S(=O)(=O)c2cc(Cl)cc(Cl)c2)cc1`, the figures for the clearance (in “in vivo”; in series [3]) were 22.1 mL/min/kg and 5 mL/min/kg, respectively. In series [1], this compound had a half-life of 2.4 h. The same compound came in with a Vd in series [2] of 0.12 L/kg.
In series [1], `COc1ccccc1-c1ccc([C@@H](CC(=O)O)NC(=O)[C@H]2CCCN2S(=O)(=O)c2cc(Cl)cc(Cl)c2)cc1` gave a half-life of 1.3 h. In addition, the Vd in series [2] is 0.08 L/kg. Also, the clearance in series [3] was 1.1 mL/min/kg.
In the case of `COc1cccc(F)c1-c1ccc([C@@H](CC(=O)O)NC(=O)[C@@H]2CCCN2S(=O)(=O)c2cc(Cl)cc(Cl)c2)cc1`, in series [1], the half-life is 0.7 h. The same compound showed a distribution volume (Vd) in series [2] of 0.19 L/kg. Moreover, the clearance in series [3] was 16.3 mL/min/kg.
With `COc1ccc([C@@H](CC(=O)O)NC(=O)[C@@H]2CCN2S(=O)(=O)c2cc(Cl)cc(Cl)c2)cc1`, in series [1], the half-life is 1.1 h. The compound further showed a Vd in series [2] of 1.5 L/kg. This compound also showed a clearance in series [3] of 22.1 mL/min/kg.
